Data published in patent publication US9051351B2, “Hepatocyte growth factor mimics as therapeutic agents” (Washington State University, priority 2011, dated 2015).
Entries after “also recorded” stand apart in the source; their conditions may differ. Like-named read-outs stand apart in the source and are kept apart here. Where a SMILES comes first, the peptide text is derived from it. [ ]: non-standard residue; d: D form. The star is where a group is joined. Hexanoyl = CCCCCC(=O)*; Ahx = NCCCCCC(=O)O

Key:
hippocampal neurons [1] = experiment: Spine head width in mRFP-β-actin transfected hippocampal neurons; type: cell-based, rat; settings: 10^−12 M, 5 days
Text: Neurons were transfected with mRFP-β-actin on day in vitro 6 […] using LipofectAMINE™ 2000 (Invitrogen) according to the manufacturer's protocol. This protocol yielded the desired 3-5% transfection efficiency thus enabling the visualization of individual neurons. Higher efficiencies obscured the dendritic arbor of individual neurons. Expression of fluorescently tagged actin allowed clear visualization of dendritic spines, as dendritic spines are enriched in actin. On DIV7 the cells were treated with vehicle (H2O) or peptides (as described in the text) added to media. […] Slides were dried for at least 20 hours at 4° C. and fluorescent images were obtained with Slidebook 4.2 Digital Microscopy Software driving an Olympus IX81 inverted confocal microscope with a 60× oil immersion lens, NA 1.4 and resolution 0.280 μm Dendritic spine density was measured on primary and secondary dendrites at a distance of at least 150 μm from the soma. Five 50 μm long segments of dendrite from at least 10 neurons per data point were analyzed for each data point reported. […] Dendrite length was determined using the National Institutes of Health's Image J 1.41o program (NIH, Bethesda, Md.) and the neurite tracing program Neuron J (Meijering, Jacob et al. 2004) Spines were manually counted. […]

[2] = Serum metabolism of peptides in rat serum; type: in vitro ADME; settings: male, Sprague Dawley, rat, rat serum
Experimental: Four month old male Sprague Dawley rats were used as the blood source for the metabolism studies. Blood was collected from left/right jugular veins of the rats using sterile catheters. After a 30 minute incubation on ice, the blood was centrifuged at 1000 rpm for 15 min to separate the serum. Serum was then transferred to clean tubes and stored at −20° C. until use.
Except for dihexa all drug solutions were prepared in HPLC grade water at 5 mg/ml. Stock drugs were kept in powder form and stored at −20° C. Serum metabolism experimental procedure and analysis. Rat blood serum samples were pre-equilibrated at 37° C. and then 10 μL (50 μg) of each drug solution was added to 90 μL of rat serum in 1.5 mL Eppendorf tube maintained at 37° C. At specified time intervals, metabolism was terminated by precipitating proteins with the addition of 1 ml of a solution of acetonitrile (ACN) and acetic acid (9:1, v/v). The terminated reaction mixture was stored in refrigerator (5° C.) overnight and centrifuged (14,000 rpm) for 30 min to remove precipitated proteins. The separated supernatant was dried in vacuum concentrator. The dried samples were reconstituted using 200 μL HPLC mobile phase (10% v/v ACN in water), vortexed briefly, and subjected to HPLC separation and analysis. A serum blank experiment to detect any interfering peaks in the HPLC chromatogram was performed by in an identical manner except that no drug was added. Zero time values for each drug candidate were established by first treating the serum with ACN, processing the sample as described above, adding drug, and then performing HPLC analysis.
The degradation rate of drug was determined by measuring the decrease in area under curve (AUC) at the retention time of drug over time. The AUC obtained from the zero time experiment was considered to represent the “100%” drug concentration and was used to determine the decreased drug concentration at each specified time interval. The semi-logarithmic plot of drug concentration vs. time was generated to determine degradation kinetic constant (k) of the tested drug. The half-life of drug was (t1/2) was calculated by 0.693/k.
Analysis of samples was performed using an HPLC system. The system consisted of a communications bus module, pumps, and a photodiode array detector. Separation was achieved using a C18 (250 mm×4.6 mm id., 5 μm particle size) reverse phase column. The column temperature was set at 40° C. The mobile phase consisted of a mixture of ACN and water with 0.1% TFA and was degassed by ultrasonication. Samples were introduced by manual mode with an injection volume of 250 μL. The drug was eluted with a flow rate of 1 mL/min and detected by PDA detector at […] wavelengths of 215 and 280 nm.

aged rats = experiment: Morris water maze, aged rat model; type: in vivo; settings: aged rats of mixed sex, Dihexa oral 2 mg/kg/day, 8 days
Experimental: (§1) Swim speed was determined from these values.
The aged rat study employed 24 month old rats of mixed sex. […] The guide was then sealed with a thick stainless steel wire.

hippocampal neurons [3] = experiment: H2O2 oxidative stress in dissociated hippocampal neurons; type: cell-based; settings: 100 μM H2O2 24 hrs +/− HGF 5 ng/ml and/or Dihexa
Experimental: FIG. 47. […] Dissociated hippocampal neurons were treated with 100 μM H2O2 for 24 hrs+/−HGF at sub-threshold concentrations 5 ng/ml and or Dihexa at 2 different concentrations 10^−8M and […]. (*p<0.05,** p<0.01; Mean+/−SEM).

scopolamine treated rats = experiment: Morris water maze, scopolamine amnesia model; type: in vivo, rat; settings: for mean latency to find the pedestal: Dihexa, Hinge 300 pmol, scopolamine 70 nmol
Experimental: as §1

[4] = scopolamine icv, dihexa icv 1 nmol

What does the source list for `CCCCCC(=O)N[C@@H](Cc1ccc(O)cc1)C(=O)N[C@H](C(=O)NCCCCCC(N)=O)[C@@H](C)CC` [Dihexa, N-hexanoic-Tyr-Ile-(6)-aminohexanoic amide] (Hexanoyl-Tyr-Ile-[Ahx]-NH2)?
spine head width (hippocampal neurons [1]): 0.80 μm; half-life at 0.5 mg/mL ([2]; 37° C., Mean +/− SD, N = 3, read-out: Half-Life (min), serum stability): 336 min; half-life at 0.5 mg/mL ([2]; read-out: t1/2 in rat serum): 330 min; latency to find the pedestal in the water maze (aged rats): preformed significantly better in the water maze than untreated rats; also recorded: performed significantly better than untreated controls; latency to find the pedestal in the water maze (aged rats; listed as dihexa): significantly improved performance; also recorded: significantly different than that of the non-treated rats; protection of neurons from oxidative stress (hippocampal neurons [3]): act synergistically to protect neurons; also recorded: protects neurons from oxidative stress; mean latency to find the pedestal (scopolamine treated rats; day one of training, icv): 115.2 s; time spent in the target quadrant, day 9 probe trial (scopolamine treated rats; dihexa at its highest dose, icv, ip and oral delivery): increased the time spent in the target quadrant; time spent in the target quadrant, day 9 probe trial (scopolamine treated rats; dihexa ip 0.05, 0.25, 0.50 mg/kg): Each of the treatment groups was different than the scopolamine; time spent in the target quadrant, day 9 probe trial (scopolamine treated rats; dihexa oral 1.25 and 2.0 mg/kg): Both of the treatment groups were different than the scopolamine; mean latency to find the pedestal (scopolamine treated rats; final day of training (day 8), icv): 62.3 s; mean latency to find the pedestal (scopolamine treated rats; fourth day of training, icv): 63.0 s; latency to escape, Morris water maze (FIG. 21) (scopolamine treated rats; i.c.v. injections, 8 days of training): show rapid facilitation of the task; latency to find the pedestal in the water maze (scopolamine treated rats; scopolamine icv, Dihexa ICV 10 pmoles (low dose)): not 10 pmoles; latency to find the pedestal in the water maze (scopolamine treated rats; scopolamine icv, Dihexa ICV 100 pmoles (high dose), daily, 8 days): reversed scopolamine-dependent learning deficits; also recorded: completely overcome the scopolamine deficits; latency to find the pedestal in the water maze (scopolamine treated rats; scopolamine icv, Dihexa oral 1.25 mg/kg/day (low dose)): partially reversed; latency to find the pedestal in the water maze (scopolamine treated rats; scopolamine icv, Dihexa oral 2 mg/kg/day (high dose), 2 mg/kg/day): no different than controls; also recorded: completely overcome the scopolamine deficits; latency to find the pedestal in the water maze (scopolamine treated rats; scopolamine icv, Dihexa oral 2 mg/kg/day (high dose), listed as dihexa, 2 mg/kg/day): indistinguishable from vehicle controls; also recorded: completely reversed the scopolamine-dependent learning deficit; latency to find the submerged platform in the Morris water maze (scopolamine treated rats; scopolamine icv, dihexa icv 0.1 nmol): significantly improved performance when compared to the scopolamine group on days 5-8; latency to find the submerged platform in the Morris water maze (scopolamine treated rats; [4]): significantly improved performance; also recorded: indistinguishable from the vehicle control group; also recorded: all time points for the 1 nmol dihexa group were different from the scopolamine group; time spent in the target quadrant, day 9 probe trial (scopolamine treated rats; [4]): vehicle control groups were not different; latency to find the submerged platform in the Morris water maze (scopolamine treated rats; scopolamine icv, dihexa ip 0.05 mg/kg): not different than the scopolamine group; latency to find the submerged platform in the Morris water maze (scopolamine treated rats; scopolamine icv, dihexa ip 0.25 mg/kg): different than the scopolamine; latency to find the submerged platform in the Morris water maze (scopolamine treated rats; scopolamine icv, dihexa ip 0.50 mg/kg, 0.5 mg/kg): indistinguishable from vehicle controls; also recorded: different than the scopolamine; also recorded: not different than the vehicle control group
